Reference: ChEMBL document CHEMBL2346648, “A series of thiazole derivatives bearing thiazolidin-4-one as non-competitive ADAMTS-5 (aggrecanase-2) inhibitors” (Bioorg Med Chem Lett, 2013)

Columns and labels:
[1] = target: T1, A disintegrin and metalloproteinase with thrombospondin motifs 4 (Bos taurus) (UniProt Q9TT93); conditions: 30 uM
T1 sequence (whole entry): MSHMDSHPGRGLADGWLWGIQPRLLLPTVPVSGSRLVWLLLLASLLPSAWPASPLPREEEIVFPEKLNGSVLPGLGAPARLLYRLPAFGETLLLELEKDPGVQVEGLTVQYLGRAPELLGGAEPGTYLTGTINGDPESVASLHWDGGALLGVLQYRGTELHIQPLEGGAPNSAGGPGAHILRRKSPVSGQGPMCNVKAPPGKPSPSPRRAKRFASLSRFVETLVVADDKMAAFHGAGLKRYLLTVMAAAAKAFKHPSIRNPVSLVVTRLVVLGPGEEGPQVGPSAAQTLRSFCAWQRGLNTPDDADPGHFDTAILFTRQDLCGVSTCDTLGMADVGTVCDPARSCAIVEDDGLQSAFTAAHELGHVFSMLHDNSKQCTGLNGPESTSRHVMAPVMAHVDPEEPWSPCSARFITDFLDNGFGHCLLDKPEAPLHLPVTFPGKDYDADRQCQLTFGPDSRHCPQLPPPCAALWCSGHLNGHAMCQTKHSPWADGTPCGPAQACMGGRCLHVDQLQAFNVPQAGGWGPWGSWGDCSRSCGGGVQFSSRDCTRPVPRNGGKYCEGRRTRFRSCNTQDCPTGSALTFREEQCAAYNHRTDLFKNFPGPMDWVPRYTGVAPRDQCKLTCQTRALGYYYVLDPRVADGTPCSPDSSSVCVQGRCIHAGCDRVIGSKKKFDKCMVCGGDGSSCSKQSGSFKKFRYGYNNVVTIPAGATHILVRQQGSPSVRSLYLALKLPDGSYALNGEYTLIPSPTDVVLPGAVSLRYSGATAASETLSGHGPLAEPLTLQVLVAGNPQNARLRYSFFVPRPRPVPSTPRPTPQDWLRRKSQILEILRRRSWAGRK
Description: Ex vivo inhibition of ADAMTS-4-mediated aggrecan degradation in IL-1-stimulated bovine cartilage explant at 30 uM

[2] = target: T2, A disintegrin and metalloproteinase with thrombospondin motifs 5 (Homo sapiens, UniProt Q9UNA0); assay: Inhibition of ADAMTS-5 (unknown origin)
T2 sequence (Q9UNA0 whole entry): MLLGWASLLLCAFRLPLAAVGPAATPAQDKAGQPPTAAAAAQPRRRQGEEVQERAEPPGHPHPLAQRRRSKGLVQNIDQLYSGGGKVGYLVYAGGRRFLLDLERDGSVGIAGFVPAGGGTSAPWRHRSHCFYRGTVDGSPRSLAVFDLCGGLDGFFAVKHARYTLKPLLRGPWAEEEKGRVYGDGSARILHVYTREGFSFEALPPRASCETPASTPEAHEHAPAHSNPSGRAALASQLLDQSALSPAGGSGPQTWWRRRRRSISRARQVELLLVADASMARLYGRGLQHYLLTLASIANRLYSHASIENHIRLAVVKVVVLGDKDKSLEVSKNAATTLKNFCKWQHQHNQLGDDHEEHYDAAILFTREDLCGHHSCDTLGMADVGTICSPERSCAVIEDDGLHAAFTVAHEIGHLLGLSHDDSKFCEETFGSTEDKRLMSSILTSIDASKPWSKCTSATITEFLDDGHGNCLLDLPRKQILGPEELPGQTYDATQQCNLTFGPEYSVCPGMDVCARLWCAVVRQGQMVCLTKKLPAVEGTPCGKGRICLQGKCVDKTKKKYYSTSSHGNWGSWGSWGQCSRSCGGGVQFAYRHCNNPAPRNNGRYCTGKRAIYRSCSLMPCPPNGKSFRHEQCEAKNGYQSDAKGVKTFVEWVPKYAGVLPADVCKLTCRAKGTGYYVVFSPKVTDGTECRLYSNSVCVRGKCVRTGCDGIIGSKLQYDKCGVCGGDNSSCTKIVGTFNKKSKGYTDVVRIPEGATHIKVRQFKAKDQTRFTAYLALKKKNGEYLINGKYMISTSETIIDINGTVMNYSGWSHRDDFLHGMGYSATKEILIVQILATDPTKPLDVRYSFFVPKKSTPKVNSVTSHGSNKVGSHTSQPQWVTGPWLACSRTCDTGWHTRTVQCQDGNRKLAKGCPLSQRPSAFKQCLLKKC

[3] = target: T3, A disintegrin and metalloproteinase with thrombospondin motifs 4 (Homo sapiens, UniProt O75173); assay: Inhibition of ADAMTS-4 (unknown origin)
T3 sequence (O75173 whole entry): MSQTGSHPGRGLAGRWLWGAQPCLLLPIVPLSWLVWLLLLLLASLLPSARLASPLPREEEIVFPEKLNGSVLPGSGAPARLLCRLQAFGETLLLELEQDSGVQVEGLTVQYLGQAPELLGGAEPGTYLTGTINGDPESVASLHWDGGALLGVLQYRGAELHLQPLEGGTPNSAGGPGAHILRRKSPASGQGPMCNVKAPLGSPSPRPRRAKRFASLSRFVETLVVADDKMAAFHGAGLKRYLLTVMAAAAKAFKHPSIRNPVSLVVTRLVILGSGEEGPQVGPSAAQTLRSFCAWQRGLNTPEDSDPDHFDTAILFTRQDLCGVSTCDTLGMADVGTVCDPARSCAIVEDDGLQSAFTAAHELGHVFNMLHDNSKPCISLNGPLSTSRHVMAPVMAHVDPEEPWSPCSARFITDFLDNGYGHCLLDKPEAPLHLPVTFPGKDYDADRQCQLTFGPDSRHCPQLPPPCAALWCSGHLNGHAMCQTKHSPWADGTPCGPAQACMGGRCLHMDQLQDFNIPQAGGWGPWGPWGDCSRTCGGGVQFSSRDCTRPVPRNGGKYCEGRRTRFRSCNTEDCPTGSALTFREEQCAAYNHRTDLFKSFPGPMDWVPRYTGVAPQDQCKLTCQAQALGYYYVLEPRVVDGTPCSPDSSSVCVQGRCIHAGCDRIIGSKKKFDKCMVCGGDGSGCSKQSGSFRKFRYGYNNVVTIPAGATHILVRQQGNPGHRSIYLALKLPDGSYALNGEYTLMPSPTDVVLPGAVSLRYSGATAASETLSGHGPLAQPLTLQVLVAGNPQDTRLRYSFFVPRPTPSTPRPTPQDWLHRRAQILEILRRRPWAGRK

[4] = target: T4, A disintegrin and metalloproteinase with thrombospondin motifs 5 (Bos taurus) (UniProt Q9TT92); assay: Ex vivo inhibition of ADAMTS-5-mediated aggrecan degradation in IL-1-stimulated bovine cartilage explant at 30 uM
T4 sequence (whole entry): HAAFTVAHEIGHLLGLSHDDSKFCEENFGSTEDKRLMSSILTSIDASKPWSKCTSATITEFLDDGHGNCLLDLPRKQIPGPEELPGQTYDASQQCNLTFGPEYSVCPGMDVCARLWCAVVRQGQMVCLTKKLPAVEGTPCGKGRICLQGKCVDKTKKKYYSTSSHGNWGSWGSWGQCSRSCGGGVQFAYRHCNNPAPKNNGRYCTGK

## O=C(NO)C1(S(=O)(=O)c2ccc(Oc3ccc(Cl)cc3)cc2)CCN(Cc2ccccc2)CC1
[1]
  inhibition: 91%
[2]
  IC50: 420 nM
[3]
  IC50: 1000 nM
[4]
  inhibition: 91%
